Data set [1] in a line: High humidity test (stability). Type of data set: physicochemical. To be noted: 25° C., RH 90%±5%, HPLC. The protocol: High humidity test: an appropriate amount of sample was put in a weighing bottle in the form of a thin layer of ≤5 mm, under a temperature of 25° C. and RH 90%±5% for 10 days. Samples were took at fifth and tenth day, appearance was observed and purity was detected by HPLC.

For data set [2] the following is noted: dog, in vivo, po, 5 mg/kg.
Procedure: (§1) (3-(4-(dihexylamino)-3-fluorophenyl)-2,6-dimethylpyrimidin-4(3H)-one), crystalline forms of the various salts were filled into capsules, which were administered orally.
(§2) Blood samples were collected at 0.25, 0.5, 1.0, 2.0, 4.0, 6.0, 8.0, 12 and 24 hours after the administration. Standard curve was plotted based on concentrations of the samples in a suitable range, the concentrations of test compounds in plasma samples were determined by using Agilent 6430 LC-MS/MS under MRM mode, and quantitative analysis was performed. Pharmacokinetic parameters were calculated according to drug concentration-time curve using a noncompartmental method by WinNonLin 6.3 software.
Data set [3] in a line: High temperature test (stability). Type of data set: physicochemical. To be noted: 60° C.; for purity: HPLC. Here is the method:
High temperature test: an appropriate amount of sample was put in a weighing bottle in the form of a thin layer of ≤5 mm, under a temperature of 60° C. for 10 days. Samples were took at fifth and tenth day, appearance was observed and purity was detected by HPLC.

Data set [4] can be described thus: Pharmacokinetics experiments of the salts, oral capsules in Beagle dogs. To be noted: 5 mg/kg.
Procedure: as §1, §2

Where two headings read alike, the source gives them in different places.

One may read the Cmax as the peak of the concentration-time curve. In general, Tmax refers to the time at which the peak concentration occurs. In data set [1] (0 d), `CCCCCCN(CCCCCC)c1ccc(-n2c(C)nc(C)cc2=O)cc1F.O=C(O)/C=C\C(=O)O` [Example 8, 3-(4-(dihexylamino)-3-fluorophenyl)-2,6-dimethylpyrimidin-4(3H)-one Maleate Crystal-I] displayed a purity of 99.53%. Moreover, in data set [1] (5 d), the purity is 99.51%. The same compound returned a purity in data set [1] (10 d) of 99.49%. Besides, in data set [2], the AUCINF stood at 38337.53 ng·h/mL, the AUClast stood at 5859.22 ng·h/mL, the Cmax stood at 588 ng/mL and the MRTINF turned out to be 155.21 h. In addition, in data set [2], the T1/2 worked out at 110.28 h, the Tmax came to 2 h and the “exposure compared to free compound (I)” value was “relative higher exposure”. For the same compound, in data set [3] (0 d), the appearance entry was “white solid” and the purity came to 99.53%. The compound further came in with a purity in data set [3] (5 d) of 99.49%. In addition, the purity in data set [3] (10 d) came out at 99.05%.
Broadly, the AUC(0-inf) is the area under the concentration-time curve extrapolated to infinity. By AUC(0-t) is commonly meant the area under the concentration-time curve up to a stated or last time point. In general, MRT inf refers to a mean duration of stay, worked out from the concentration-time curve. For orientation: half-life means how long it takes for the measured level to halve. For the compound `CCCCCCN(CCCCCC)c1ccc(-n2c(C)nc(C)cc2=O)cc1F` [Compound (I), 3-(4-(dihexylamino)-3-fluorophenyl)-2,6-dimethylpyrimidin-4(3H)-one], in data set [4] (male, Beagle, dog, plasma, po), the AUC(0-inf) was 2320 ng·h/mL, the AUC(0-t) was determined as 1730 ng·h/mL, the maximum concentration (Cmax) was determined as 244 ng/mL and the MRT inf was 23.3 h. In addition, in data set [4] (male, Beagle, dog, plasma, po), the Tmax was found to be 1.17 h and the half-life was 13.8 h.
Regarding `CCCCCCN(CCCCCC)c1ccc(-n2c(C)nc(C)cc2=O)cc1F.Cl` [Example 1, 3-(4-(dihexylamino)-3-fluorophenyl)-2,6-dimethylpyrimidin-4(3H)-one Hydrochloride Crystal-I], the purity in data set [1] (0 d) is recorded as 99.81%. The purity in data set [1] (5 d) came out at 99.79%. This compound also registered a purity in data set [1] (10 d) of 99.80%. In data set [4] (male Beagle dogs, oral capsule), the AUCINF worked out at 6310 ng·h/mL, the AUClast was 4470 ng·h/mL, the Cmax turned out to be 364 ng/mL and the MRTINF is listed as 41.9 h. For the same compound, in data set [4] (male Beagle dogs, oral capsule), the T1/2 is given as 34.5 h and the Tmax is reported as 2.33 h. This compound also registered a purity in data set [3] (0 d) of 99.81%. Besides, the purity in data set [3] (5 d) is 99.80%. The compound further yielded a purity in data set [3] (10 d) of 99.79%.
Compound `CCCCCCN(CCCCCC)c1ccc(-n2c(C)nc(C)cc2=O)cc1F.Cl` [Example 2, 3-(4-(dihexylamino)-3-fluorophenyl)-2,6-dimethylpyrimidin-4(3H)-one Hydrochloride Crystal-II] registered a purity in data set [1] (0 d) of 99.85%. In addition, the purity in data set [1] (5 d) is 99.86%. For the same compound, in data set [1] (10 d), the purity is recorded as 99.82%. Besides, in data set [2], the AUCINF came to 2820 ng·h/mL, the AUClast was 2940 ng·h/mL, the Cmax turned out to be 485 ng/mL and the MRTINF worked out at 9.43 h. Further, in data set [2], the T1/2 was found to be 9.54 h, the Tmax amounted to 8.83 h and the “exposure compared to free compound (I)” value was “relative higher exposure”. Moreover, the purity in data set [3] (0 d) worked out at 99.85%. The purity in data set [3] (5 d) is on record as 99.86%. In data set [3] (10 d), the purity is listed as 99.83%.
Turning to `CCCCCCN(CCCCCC)c1ccc(-n2c(C)nc(C)cc2=O)cc1F.Cc1ccc(S(=O)(=O)O)cc1` [Example 6, 3-(4-(dihexylamino)-3-fluorophenyl)-2,6-dimethylpyrimidin-4(3H)-one Tosilate Crystal-I], the purity in data set [1] (0 d) is reported as 99.83%; in data set [1] (5 d) it was 99.80%; in data set [1] (10 d) it was 99.83%; in data set [3] (0 d), 99.83%; in data set [3] (5 d) it was 99.81%; in data set [3] (10 d), 99.81%. For the same compound, in data set [4] (male Beagle dogs, oral capsule), the AUCINF was found to be 3010 ng·h/mL. Also, the AUClast in data set [4] (male Beagle dogs, oral capsule) was found to be 2720 ng·h/mL. Also, the Cmax in data set [4] (male Beagle dogs, oral capsule) was found to be 329 ng/mL. The MRTINF in data set [4] (male Beagle dogs, oral capsule) is 17.5 h. Besides, the T1/2 in data set [4] (male Beagle dogs, oral capsule) was 17.5 h. In addition, in data set [4] (male Beagle dogs, oral capsule), the Tmax is recorded as 2 h. For the same compound, the “exposure compared to free compound (I)” value in data set [4] (male Beagle dogs, oral capsule, conclusion from table 1) is recorded as “relative higher exposure”.

These data come from patent publication US10647682B2, “Salts of 2,6-dimethylpyrimidone derivatives and uses thereof” (SUNSHINE LAKE PHARMA CO., LTD., priority 2016, dated 2020).
